The source of these data is ChEMBL document CHEMBL3797190, “Development of 3,5-Dinitrobenzylsulfanyl-1,3,4-oxadiazoles and Thiadiazoles as Selective Antitubercular Agents Active Against Replicating and Nonreplicating Mycobacterium tuberculosis” (J Med Chem, 2016).

The subject of data set [1] is Trichosporon asahii. Briefly: Antifungal activity against Trichosporon asahii 1188 after 24 to 48 hrs by broth microdilution method. Type of data set: functional. On the technique in general: In broth dilution the organism is exposed to a series of concentrations in liquid medium.
In data set [2] the test system is Mycobacterium tuberculosis H37Ra. Briefly: Inhibition of DprE1 in Mycobacterium tuberculosis H37Ra assessed as accumulation of trehalose dimycolate at 0.5 ug/ml preincubated for 24 hrs followed by radiolabeling with [14C]-acetate for 24 hrs by TLC/autoradiographic method.
Data set [3] deals with Mycobacterium tuberculosis. The data set is described as follows: Antimycobacterial activity against Mycobacterium tuberculosis CNCTC My 331/88 after 21 days by microdilution method. It counts as functional. The note with it: CNCTC My 331/88, 504 h.
The subject of data set [4] is Mycobacterium kansasii. The data set is described as follows: Antimycobacterial activity against Mycobacterium kansasii CNCTC My 6509/96 after 21 days by microdilution method. Type of data set: functional. As to conditions: CNCTC My 6509/96, 504 h.
Data set [5] is described as follows: Cytotoxicity against human HuH7 cells assessed as cell viability after 24 hrs by MTS assay. Type of data set: cell-based. As to conditions: Huh-7, 24 h. In general terms: Tetrazolium dyes change colour on reduction, which living cells bring about.
In data set [6] the test system is Klebsiella pneumoniae. The data set is described as follows: Antibacterial activity against Klebsiella pneumoniae D 11750/08 after 24 to 48 hrs by broth microdilution method. Type of data set: functional.
The test system of data set [7] is Mycobacterium tuberculosis. Briefly: Antimycobacterial activity against Mycobacterium tuberculosis H37Ra assessed as growth inhibition at 1 ug/ml preincubated for 1 hr followed by radiolabeling with [14C]-uracil, [14C]-methionine for 24 hrs. It counts as functional, organism-based.
The nature of data set [8]: Cytotoxicity against human HuH7 cells assessed as cell viability after 48 hrs by MTS assay. Type of data set: cell-based. The note with it: Huh-7, 48 h.
Data set [9] concerns Salmonella typhimurium. Briefly: Mutagenic activity in Salmonella typhimurium TA98 assessed as reverse mutation at 30 uM by Ames test. It counts as toxicity, organism-based. The note with it: salmonella enterica subsp. enterica serovar typhimurium. A general note: The Ames test uses bacterial strains that need an amino acid and regain growth without it when mutated back.
The subject of data set [10] is Hepatocyte. Briefly: Cytotoxicity against primary human hepatocytes assessed as cell viability after 48 hrs by MTS assay. It counts as cell-based.
The test system of data set [11] is Pseudomonas aeruginosa. The data set is described as follows: Antibacterial activity against Pseudomonas aeruginosa ATCC 9027 after 24 to 48 hrs by broth microdilution method. It counts as functional.
Data set [12] is described as follows: Cytotoxicity against human HuH7 cells assessed as cell viability at 20 uM after 24 hrs by MTS assay. The note with it: read-out: Activity. It counts as cell-based, Huh-7.
In data set [13] the test system is Mycobacterium tuberculosis. The data set is described as follows: Antimycobacterial activity against Mycobacterium tuberculosis CNCTC My 331/88 after 14 days by microdilution method. It counts as functional. The note with it: CNCTC My 331/88, 336 h.
Data set [14] deals with Nakaseomyces glabratus. The data set is described as follows: Antifungal activity against Candida glabrata 20/I after 24 to 48 hrs by broth microdilution method. It counts as functional.
In data set [15] the test system is Pichia kudriavzevii. The data set is described as follows: Antifungal activity against Candida krusei E28 after 24 to 48 hrs by broth microdilution method. It counts as functional.
Data set [16] in a line: Cytotoxicity against human HepG2 cells assessed as cell viability at 50 uM after 48 hrs by MTS assay. It counts as cell-based. The note with it: read-out: Activity.
Data set [17] is described as follows: Cytotoxicity against MDCK2-MDR1 cells assessed as cell viability after 48 hrs by MTS assay. It counts as ADME, cell-based. The note with it: Canis lupus familiaris, MDCK-II.
For data set [18], the system named is PBL. Briefly: Genotoxicity in human PBL at 0.6 to 12 mM by chromosome aberration test in presence of metabolic activation. The note with it: 12000 µM. It counts as toxicity, cell-based.
The subject of data set [19] is PBL. The data set is described as follows: Genotoxicity in human PBL at 0.6 to 12 mM by chromosome aberration test in absence of metabolic activation. It counts as toxicity, cell-based. As to conditions: 12000 µM.
Data set [20] is described as follows: Chemical stability of compound in DMSO under open-vessel condition at 4 mg/ml at 60 degC after 3 days by 1H-NMR analysis. It counts as physicochemical. As to conditions: 72 h.
Data set [21] relates to PBL. The data set is described as follows: Genotoxicity in human PBL at 0.6 to 12 mM by micronucleus test in presence of metabolic activation. The note with it: 12000 µM. Type of data set: toxicity, cell-based.
Data set [22] concerns PBL. The data set is described as follows: Genotoxicity in human PBL at 0.6 to 12 mM by micronucleus test in absence of metabolic activation. As to conditions: 12000 µM. Type of data set: toxicity, cell-based.

The structures appear in SMILES notation. ≈ marks a conversion by molar mass, not a printed value. Calls of active or inactive are those of the source. No cut-off for these calls is given here.

Turning to `Cc1ccc(-c2nnc(SCc3cc([N+](=O)[O-])cc([N+](=O)[O-])c3)o2)cc1`, the MIC80 in [1], in [14] and in [15] was greater than 125 µM each time. Besides, the inhibition result in data set [2] was “inactive”. In addition, the MIC99 in [3] is no more than 0.03 µM; in data set [4], 0.125 µM (≈ 0.0465 µg/mL); in [13], no more than 0.03 µM. Further, the concentration for half-maximal inhibition (IC50) in data set [5], in data set [8] and in data set [10] was greater than 20 µM each time. The MIC95 in data set [6] and in [11] was greater than 125 µM throughout. Moreover, in data set [7], the “growth inhibition (GI)” value is “Active”. Besides, the Activity result in [9] is recorded as “Non-toxic”. Moreover, the viability at 24 h, 20 µM in data set [12] worked out at 101%. The viability at 48 h, 50 µM in data set [16] stood at 95.5%.
As for `O=[N+]([O-])c1cc(CSc2nnc(-c3ccc(Cl)cc3)s2)cc([N+](=O)[O-])c1`, the MIC80 in data set [1], in [14] and in data set [15] was greater than 125 µM in each case. Further, the inhibition entry in data set [2] is “inactive”. The results for the MIC99 in data set [3], in [4] and in data set [13] were 0.06 µM (≈ 0.0245 µg/mL), 0.5 µM (≈ 0.204 µg/mL) and 0.06 µM (≈ 0.0245 µg/mL), respectively. Also, the half-maximal inhibitory concentration (IC50) in data set [17], in data set [5] and in [10] was greater than 20 µM each time. Also, the MIC95 in data set [6] and in data set [11] was greater than 125 µM throughout. Besides, the “growth inhibition (GI)” value in data set [7] is “inactive”. In addition, the Activity entry in data set [18], in [9], in data set [19], in data set [21] and in data set [22] was “Non-toxic” throughout. For the same compound, the viability at 24 h, 20 µM in data set [12] worked out at 94%. In addition, the Stability result in data set [20] is on record as “Stable”. Further, the viability at 48 h, 50 µM in [16] came to 98.5%.

One may read the MIC80 as the lowest concentration that inhibits either 80% of growth or 80% of the strains tested, depending on the study. In general, MIC99 refers to the lowest concentration that inhibits either 99% of growth or 99% of the strains tested, depending on the study. Low readings indicate greater potency, high ones weaker potency. For orientation: IC50 means the concentration needed to halve the response being measured.
